Test results as given in patent US12667559B2, “Dihydronaphthyridinone compound, and preparation method therefor and medical use thereof” (GENFLEET THERAPEUTICS (SHANGHAI) INC., priority 2020, dated 2026).
Where two headings read alike, the source gives them in different places.

Tested on: U937 cells
Assay: Inhibitory activity against TNF-α induced programmed cell necrosis (U937 cells, CellTiter-Glo)
Assay type: cell-based, human
Details: U937 cells, human TNF-α and Q-VD-Oph induced necrosis, 48 hours, survival rate, read-out: U937 IC50

`C[C@@](O)(C(=O)N1C[C@@H](N2CCc3ncc(-c4cc(C(F)(F)F)c5c(N)ncnn45)cc3C2=O)[C@@H](F)C1)C(F)(F)F` (mixture of isomers) [Z27, cis-3-(4-amino-5-(trifluoromethyl)pyrrolo[2,1-f][1,2,4]triazin-7-yl)-6-(4-fluoro-1-((R)-3,3,3-trifluoro-2-hydroxy-2-methylpropionyl)pyrrolidin-3-yl)-7,8-dihydro-1,6-naphthyridin-5(6H)-one] gave an IC50 of 6 nM.
Work on `Nc1nc2cc(-c3cnc4c(c3)C(=O)N(Cc3cc(F)cc(F)c3OC3CCOCC3)CC4)ccn2n1` [Z70] yielded an IC50 (Homo sapiens, U-937, 48 h) of 0.4 nM.
`Nc1nc2cc(-c3cnc4c(c3)C(=O)N(Cc3cc(F)ccc3OC(F)(F)F)CC4)ccn2n1` [Z102, 3-(2-amino-[1,2,4]triazolo[1,5-a]pyridyl-7-yl)-6-(5-fluoro-2-(trifluoromethoxy)benzyl)-7,8-dihydro-1,6-naphthyridin-5(6H)-one] showed an IC50 (Homo sapiens, U-937, 48 h) of 21.1 nM.
In the case of `C[C@@H](c1ccc(F)cc1)n1cc(N2CCc3ncc(-c4cc(C(F)(F)F)c5c(N)ncnn45)cc3C2=O)cn1` (single isomer, unassigned) [Z35-2], the IC50 (Homo sapiens, U-937, 48 h) is reported as 0.2 nM.
Molecule `CC(c1ccc(F)cc1)n1cc(N2CCc3ncc(-c4ccn5nc(N)nc5c4)cc3C2=O)cn1` (stereo not shown) [Z64] has an IC50 of 2 nM.
For `C[C@@](O)(C(=O)N1C[C@@H](N2CCc3ncc(-c4ccc5c(N)ncnn45)cc3C2=O)[C@@H](F)C1)C(F)(F)F` [Z31, cis-3-(4-aminopyrrolo[2,1-f][1,2,4]triazin-7-yl)-6-(4-fluoro-1-((R)-3,3,3-trifluoro-2-hydroxy-2-methylpropionyl)pyrrolidin-3-yl)-7,8-dihydro-1,6-naphthyridin-5(6H)-one], the IC50 (Homo sapiens, U-937, 48 h) was 18.2 nM.
`Nc1nc2cc(-c3cc4c(nc3Cl)CCN(Cc3cc(OC(F)(F)F)ccc3F)C4=O)ccn2n1` [Z56, 3-(2-amino-[1,2,4]triazolo[1,5-a]pyridyl-7-yl)-2-chloro-6-(2-fluoro-5-(trifluoromethoxy)benzyl)-7,8-dihydro-1,6-naphthyridin-5(6H)-one] showed an IC50 of 4 nM.
With `CC(c1cc(F)ccc1OC(F)(F)F)N1CCc2ncc(-c3ccn4nc(N)nc4c3)cc2C1=O` (stereo not shown) [Z55, 3-(2-amino-[1,2,4]triazolo[1,5-a]pyridyl-7-yl)-6-(1-(5-fluoro-2-(trifluoromethoxy)phenyl)ethyl)-7,8-dihydro-1,6-naphthyridin-5(6H)-one] the IC50 (U-937) was 8 nM.
For `Cc1nc2c(cc1-c1ccn3nc(N)nc3c1)C(=O)N(Cc1cc(OC(F)(F)F)ccc1F)CC2` [Z57, 3-(2-amino-[1,2,4]triazolo[1,5-a]pyridyl-7-yl)-6-(2-fluoro-5-(trifluoromethoxy)benzyl)-2-methyl-7,8-dihydro-1,6-naphthyridin-5(6H)-one], the IC50 (Homo sapiens, U-937, 48 h) was 2 nM.
Molecule `Nc1nc2cc(-c3cnc4c(c3)C(=O)N(Cc3ccccc3OC3CC3)CC4)ccn2n1` [Z68] has an IC50 (Homo sapiens, U-937, 48 h) of 4.3 nM.
For `C[C@H](c1ccccc1OC(F)(F)F)N1CCc2ncc(-c3ccn4nc(N)nc4c3)cc2C1=O` [Z46-2, (R)-3-(2-amino-[1,2,4]triazolo[1,5-a]pyridyl-7-yl)-6-(1-(2-(trifluoromethoxy)phenyl)ethyl)-7,8-dihydro-1,6-naphthyridin-5(6H)-one], the IC50 (Homo sapiens, U-937, 48 h) was 986 nM.
In the case of `Nc1nc2cc(-c3cnc4c(c3)C(=O)N(Cc3ccccc3OC(F)(F)F)CC4)ccn2n1` [Z44, 3-(2-amino-[1,2,4]triazolo[1,5-a]pyridyl-7-yl)-6-(2-(trifluoromethoxy)benzyl)-7,8-dihydro-1,6-naphthyridin-5(6H)-one], the IC50 (U-937) is reported as 42 nM.
For `CC(=O)Nc1cn2nc(-c3cnc4c(c3)C(=O)N(Cc3ncccc3OC3CCOCC3)CC4)ccc2n1` [Z28, N-(6-(5-oxo-6-((3-((tetrahydro-2H-pyran-4-yl)oxy)pyridyl-2-yl)methyl)-5,6,7,8-tetrahydro-1,6-naphthyridin-3-yl)imidazo[1,2-b]pyridazin-2-yl)acetamide], the IC50 was 12.7 nM.
Work on `C[C@@H](c1ccc(F)cc1)n1cc(N2CCc3ncc(-c4ccn5nc(N)nc5c4)cc3C2=O)cn1` (single isomer, unassigned) [Z73] yielded an IC50 of 34 nM.
`O=C1c2cc(-c3ccncc3)cnc2CCN1Cc1cc(F)cc(F)c1OC1CCOCC1` [Z11, 6-(3,5-difluoro-2-((tetrahydro-2H-pyran-4-yl)oxy)benzyl)-3-(pyridin-4-yl)-7,8-dihydro-1,6-naphthyridin-5(6H)-one] showed an IC50 (Homo sapiens, U-937, 48 h) of 31.2 nM.
Work on `CNc1nc2cc(-c3cnc4c(c3)C(=O)N(Cc3cc(OC(F)(F)F)ccc3F)CC4)ccn2n1` [Z59, 6-(2-fluoro-5-(trifluoromethoxy)benzyl)-3-(2-(methylamino)-[1,2,4]triazolo[1,5-a]pyridyl-7-yl)-7,8-dihydro-1,6-naphthyridin-5(6H)-one] yielded an IC50 (U-937) of 12 nM.
`CC(=O)Nc1cn2nc(-c3cnc4c(c3)C(=O)N(Cc3cc(F)cc(F)c3OC3CCOC3)CC4)ccc2n1` (stereo not shown) [Z3, N-(6-(6-(3,5-difluoro-2-((tetrahydrofuran-3-yl)oxy)benzyl)-5-oxo-5,6,7,8-tetrahydro-1,6-naphthyridin-3-yl)imidazo[1,2-b]pyridazin-2-yl)acetamide] gave an IC50 (Homo sapiens, U-937, 48 h) of 1.4 nM.
`Nc1nc2cc(-c3cnc4c(c3)C(=O)N(c3cnn(Cc5ccc(F)cc5)c3)CC4)ccn2n1` [Z52, 3-(2-amino-[1,2,4]triazolo[1,5-a]pyridyl-7-yl)-6-(1-(4-fluorobenzyl)-1H-pyrazol-4-yl)-7,8-dihydro-1,6-naphthyridin-5(6H)-one] was tested, and the IC50 (Homo sapiens, U-937, 48 h) was 19 nM.
Molecule `CC(=O)Nc1cn2nc(-c3cnc4c(c3)C(=O)N(Cc3cc(F)cc(F)c3OC3CC3)CC4)ccc2n1` [Z20, N-(6-(6-(2-cyclopropoxy-3,5-difluorobenzyl)-5-oxo-5,6,7,8-tetrahydro-1,6-naphthyridin-3-yl)imidazo[1,2-b]pyridazin-2-yl)acetamide] has an IC50 (U-937) of 4.4 nM.
`C[C@@](O)(C(=O)N1C[C@@H](N2CCc3ncc(-c4cc(C(F)(F)F)c5c(N)ncnn45)cc3C2=O)[C@@H](F)C1)C(F)(F)F` (single isomer, unassigned) [Z27-2] showed an IC50 of 1.9 nM.
`CCOC(=O)C(=O)Nc1cn2nc(-c3cnc4c(c3)C(=O)N(Cc3cc(F)cc(F)c3OC3CCOCC3)CC4)ccc2n1` [Z96, ethyl 2-((6-(6-(3,5-difluoro-2-((tetrahydro-2H-pyran-4-yl)oxy)benzyl)-5-oxo-5,6,7,8-tetrahydro-1,6-naphthyridin-3-yl)imidazo[1,2-b]pyridazin-2-yl)amino)-2-oxoacetate] was tested, and the IC50 (Homo sapiens, U-937, 48 h) was 1.7 nM.
`Nc1nc2cc(-c3cnc4c(c3)C(=O)N(Cc3cc(OC(F)(F)F)ccc3F)CC4)ccc2o1` [Z17, 3-(2-aminobenzo[d]oxazol-5-yl)-6-(2-fluoro-5-(trifluoromethoxy)benzyl)-7,8-dihydro-1,6-naphthyridin-5(6H)-one] showed an IC50 (U-937) of 57.5 nM.
`Nc1nc2cc(-c3cnc4c(c3)C(=O)N(Cc3cccc(OC(F)(F)F)c3)CC4)ccn2n1` [Z50, 3-(2-amino-[1,2,4]triazolo[1,5-a]pyridyl-7-yl)-6-(3-(trifluoromethoxy)benzyl)-7,8-dihydro-1,6-naphthyridin-5(6H)-one] showed an IC50 (U-937) of 40 nM.
Work on `Nc1nc2cc(-c3cnc4c(c3)C(=O)N(Cc3cc(F)cc(F)c3OCC3CC3)CC4)ccn2n1` [Z67] yielded an IC50 (Homo sapiens, U-937, 48 h) of 0.5 nM.
For `Nc1nc2ccc(-c3cnc4c(c3)C(=O)N(Cc3cc(OC(F)(F)F)ccc3F)CC4)cc2o1` [Z16, 3-(2-aminobenzo[d]oxazol-6-yl)-6-(2-fluoro-5-(trifluoromethoxy)benzyl)-7,8-dihydro-1,6-naphthyridin-5(6H)-one], the IC50 (U-937) was 10.7 nM.
`Cc1cc(-c2cnc3c(c2)C(=O)N(c2cnn(C(C)c4ccc(F)cc4)c2)CC3)n2ncnc(N)c12` (stereo not shown) [Z97] was tested, and the IC50 (Homo sapiens, U-937, 48 h) was 0.2 nM.
With `Nc1nc2cc(-c3cnc4c(c3)C(=O)N(Cc3ncccc3OC3CCOCC3)CC4)ccn2n1` [Z62, 3-(2-amino-[1,2,4]triazolo[1,5-a]pyridin-7-yl)-6-((3-((tetrahydro-2H-pyran-4-yl)oxy)pyridin-2-yl)methyl)-7,8-dihydro-1,6-naphthyridin-5(6H)-one] the IC50 (U-937) was 13 nM.
In the case of `O=C(CO)Nc1cn2nc(-c3cnc4c(c3)C(=O)N(Cc3cc(F)cc(F)c3OC3CCOCC3)CC4)ccc2n1` [Z39, N-(6-(6-(3,5-difluoro-2-((tetrahydro-2H-pyran-4-yl)oxy)benzyl)-5-oxo-5,6,7,8-tetrahydro-1,6-naphthyridin-3-yl)imidazo[1,2-b]pyridazin-2-yl)-2-hydroxyacetamide], the IC50 (Homo sapiens, U-937, 48 h) is reported as 0.9 nM.
`Nc1nc2cc(-c3cnc4c(c3)C(=O)N(Cc3cc(F)ccc3OC3COC3)CC4)ccn2n1` [Z79] was tested, and the IC50 (Homo sapiens, U-937, 48 h) was 47.6 nM.
In the case of `Nc1nc2cc(-c3cnc4c(c3)C(=O)N(Cc3ncccc3OCC3CC3)CC4)ccn2n1` [Z61, 3-(2-amino-[1,2,4]triazolo[1,5-a]pyridyl-7-yl)-6-((3-(cyclopropylmethoxy)pyridyl-2-yl)methyl)-7,8-dihydro-1,6-naphthyridin-5(6H)-one], the IC50 (U-937) is reported as 14 nM.
`Nc1nc2cc(-c3cnc4c(c3)C(=O)N(Cc3cc(F)cc(F)c3OC3CCOC3)CC4)ccn2n1` (stereo not shown) [Z71] showed an IC50 (Homo sapiens, U-937, 48 h) of 1.1 nM.
`CC(=O)Nc1cn2nc(-c3cnc4c(c3)C(=O)N(Cc3cc(F)ccc3CN3CCOCC3)CC4)ccc2n1` [Z19] showed an IC50 of 34.7 nM.
`Nc1ncnn2c(-c3cnc4c(c3)C(=O)N(C3CN(C(=O)c5ccc(F)cc5)CC3F)CC4)cc(C(F)(F)F)c12` (stereo not drawn) [Z36, cis-3-(4-amino-5-(trifluoromethyl)pyrrolo[2,1-f][1,2,4]triazin-7-yl)-6-(4-fluoro-1-(4-fluorobenzoyl)pyrrolidin-3-yl)-7,8-dihydro-1,6-naphthyridin-5(6H)-one] was tested, and the IC50 (Homo sapiens, U-937, 48 h) was 45.3 nM.
For `CC(=O)Nc1cn2nc(-c3cnc4c(c3)C(=O)N(C(C)c3ccccc3OC(F)(F)F)CC4)ccc2n1` (stereo not shown) [Z7, N-(6-(5-oxo-6-(1-(2-(trifluoromethoxy)phenyl)ethyl)-5,6,7,8-tetrahydro-1,6-naphthyridin-3-yl)imidazo[1,2-b]pyridazin-2-yl)acetamide], the IC50 (Homo sapiens, U-937, 48 h) was 3.9 nM.
For `CC(=O)Nc1cn2nc(-c3cnc4c(c3)C(=O)N(c3cnn(C(C)c5ccc(F)cc5)c3)CC4)ccc2n1` (stereo not shown) [Z1], the IC50 (Homo sapiens, U-937, 48 h) was 2.8 nM.
In the case of `CC(c1cc(OC(F)(F)F)ccc1F)N1CCc2ncc(-c3ccn4nc(N)nc4c3)cc2C1=O` (stereo not shown) [Z60, 3-(2-amino-[1,2,4]triazolo[1,5-a]pyridyl-7-yl)-6-(1-(2-fluoro-5-(trifluoromethoxy)phenyl)ethyl)-7,8-dihydro-1,6-naphthyridin-5(6H)-one], the IC50 (U-937) is reported as 162 nM.
Work on `C[C@@](O)(C(=O)N1CC[C@H](N2CCc3ncc(-c4cc(C(F)(F)F)c5c(N)ncnn45)cc3C2=O)C1)C(F)(F)F` [Z32] yielded an IC50 (Homo sapiens, U-937, 48 h) of 26.8 nM.
